Assay results as given in patent US11986532B2 (Arvinas Operations, Inc., priority 2021, dated 2024).
Like-named read-outs stand apart in the source and are kept apart here.

Molecular target: T1, BCL6 (Homo sapiens, UniProt P41182)
T1 construct: endogenous in cells; host or cells: T47D breast cancer epithelial cells
Assay: Immunofluorescence protocol for high content imaging of BCL6 (degradation) in T47D cells, 3 days compound treatment
Type: cell-based
Settings: for Dmax: read-out: Mean Dmax (%)** category; for DC50: read-out: Mean DC50 (nM)* category
In short: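 For degradation, compound series (3-fold, 11 points, top 0.1 or 1 μM final) were added to adherent T47D cultures for 3 days. BCL6 immunostaining used a rabbit antibody at 1:300 and an Alexa-488 secondary, with imaging at 10× magnification.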

[1] = T47D cells, 3 days compound treatment

Structure (SMILES)	Dmax (T47D) [%]	DC50 [nM]	DC50 [1] [nM]	Dmax [1] [%]
CNC(=O)COc1cc2cc(Nc3nc(N4CCC(O[C@H]5C[C@H](N6CCC7(CCN(c8ccc9c(c8)CN(C8CCC(=O)NC8=O)C9=O)C7)CC6)C5)CC4)ncc3Cl)ccc2n(C(C)C)c1=O (stereo partly drawn) [Compound 361, 2-({6-[(5-chloro-2-{4-[(1r,3r)-3-{2-[2-(2,6-dioxopiperidin-3-yl)-1-oxo-2,3-dihydro-1H-isoindol-5-yl]-2,8-diazaspiro [4.5]decan-8-yl}cyclobutoxy]piperidin-1-yl}pyrimidin-4-yl)amino]-2-oxo-1-(propan-2-yl)-1,2-dihydroquinolin-3-yl}oxy)-N-methylacetamide]	50 to 70	< 10	–	–
CNC(=O)COc1cc2cc(Nc3nc(N4CCN(CC5CC6(CCN(c7ccc8c(c7F)CN(C7CCC(=O)NC7=O)C8=O)CC6)C5)CC4)ncc3Cl)ccc2n(C(C)C)c1=O (stereo not drawn) [Compound 319, 2-{[6-({5-chloro-2-[4-({7-[2-(2,6-dioxopiperidin-3-yl)-4-fluoro-1-oxo-2,3-dihydro-1H-isoindol-5-yl]-7-azaspiro[3.5]nonan-2-yl}methyl)piperazin-1-yl]pyrimidin-4-yl}amino)-2-oxo-1-(propan-2-yl)-1,2-dihydroquinolin-3-yl]oxy}-N-methylacetamide]	50 to 70	< 10	–	–
CNC(=O)COc1cc2cc(Nc3nc(N4CCC(O[C@H]5C[C@H](N6CC[C@@H](c7ccc8c(c7F)CN([C@@H]7CCC(=O)NC7=O)C8=O)C(C)(C)C6)C5)CC4)ncc3Cl)ccc2n(C(C)C)c1=O [Compound 396, 2-({6-[(5-chloro-2-{4-[(1r,3r)-3-[(4R)-4-{2-[(3R)-2,6-dioxopiperidin-3-yl]-4-fluoro-1-oxo-2,3-dihydro-1H-isoindol-5-yl}-3,3-dimethylpiperidin-1-yl]cyclobutoxy]piperidin-1-yl}pyrimidin-4-yl)amino]-2-oxo-1-(propan-2-yl)-1,2-dihydroquinolin-3-yl}oxy)-N-methylacetamide]	≥ 70	< 10	–	–
CNC(=O)COc1cc2cc(Nc3nc(N4CCC(CN5CC6(CCN(c7ccc8c(c7)CN(C7CCC(=O)NC7=O)C8=O)C6)CC5=O)CC4)ncc3Cl)ccc2n(C(C)C)c1=O (stereo not drawn) [Compound 54, 2-{[6-({5-chloro-2-[4-({7-[2-(2,6-dioxopiperidin-3-yl)-1-oxo-2,3-dihydro-1H-isoindol-5-yl]-3-oxo-2,7-diazaspiro[4.4]nonan-2-yl}methyl)piperidin-1-yl]pyrimidin-4-yl}amino)-2-oxo-1-(propan-2-yl)-1,2-dihydroquinolin-3-yl]oxy}-N-methylacetamide]	–	–	< 10	< 50
CNC(=O)COc1cc2cc(Nc3nc(N4CCC(CN5CCC6(CN(c7cc8c(cc7F)C(=O)N(C7CCC(=O)NC7=O)C8)C6)C(F)(F)C5)CC4)ncc3Cl)ccc2n(C(C)C)c1=O (stereo not drawn) [Compound 100, 2-{[6-({5-chloro-2-[4-({2-[2-(2,6-dioxopiperidin-3-yl)-6-fluoro-1-oxo-2,3-dihydro-1H-isoindol-5-yl]-5,5-difluoro-2,7-diazaspiro[3.5]nonan-7-yl}methyl)piperidin-1-yl]pyrimidin-4-yl}amino)-2-oxo-1-(propan-2-yl)-1,2-dihydroquinolin-3-yl]oxy}-N-methylacetamide]	–	–	< 10	50 to 70
CNC(=O)COc1cc2cc(Nc3nc(N4CCC(O[C@H]5C[C@H](N6CCN(CC7CCN(c8ccc9c(c8F)CN(C8CCC(=O)NC8=O)C9=O)CC7)CC6)C5)CC4)ncc3Cl)ccc2n(C(C)C)c1=O (stereo partly drawn) [Compound 286, 2-({6-[(5-chloro-2-{4-[(1r,3r)-3-[4-({1-[2-(2,6-dioxopiperidin-3-yl)-4-fluoro-1-oxo-2,3-dihydro-1H-isoindol-5-yl]piperidin-4-yl}methyl)piperazin-1-yl]cyclobutoxy]piperidin-1-yl}pyrimidin-4-yl)amino]-2-oxo-1-(propan-2-yl)-1,2-dihydroquinolin-3-yl}oxy)-N-methylacetamide]	50 to 70	< 10	–	–
